Some test systems named below: OVCAR-3 ovarian; SR leukemia; IGROV1 ovarian; OVCAR-5 ovarian; HCC-2998 colon; A498 renal; CCRF-CEM leukemia; DU-145 prostate; U251 CNS; NCI-H460 lung.
Common to all, as to assay: inhibition of tumour cell growth, NCI panel, 48 h

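Interpolation was linear, between the two tested concentrations surrounding the appropriate level; five concentrations were tested over 48 hours in 96-well plates. GI50 is the concentration that inhibits growth by half. Definition used: TGI = concentration required for complete inhibition of growth.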

`CC1(C)CCC[C@]2(C)[C@@H](C=O)C(C=O)=CC[C@@H]12`: the TGI with OVCAR-3 ovarian is 28 µM; with SR leukemia, 44.5 µM; in the test with IGROV1 ovarian, 44.4 µM; in the test with OVCAR-5 ovarian it was 33.2 µM; in the test with HCC-2998 colon, 32.7 µM; in the test on A498 renal, more than 100 µM. For the same compound, the TGI amounted to 80.1 µM with CCRF-CEM leukemia, 50.3 µM in the test with DU-145 prostate and 46.9 µM with U251 CNS.

As for `CN1CCN(Cc2ccc(NC(=O)c3[nH]ncc3Nc3ncnc4sc5c(c34)CCCC5)cc2)CC1`, the GI50 was 0.22 µM with OVCAR-3 ovarian; 0.173 µM in the test with SR leukemia; 0.258 µM in the test with IGROV1 ovarian; 0.383 µM with OVCAR-5 ovarian; 0.535 µM in the test with HCC-2998 colon; 0.136 µM with NCI-H460 lung. For the same compound, the results for the GI50 in the test with A498 renal and in the test on CCRF-CEM leukemia were 0.0865 µM and 0.179 µM, respectively. For the same compound, the TGI in the test with OVCAR-3 ovarian was 1.34 µM; with SR leukemia it was 0.527 µM; with IGROV1 ovarian, 1.3 µM; with OVCAR-5 ovarian, 1.73 µM; with HCC-2998 colon, 2.07 µM; in the test on NCI-H460 lung, 1.05 µM. Besides, the values for the TGI in the test on A498 renal and in the test on CCRF-CEM leukemia were 0.668 µM and 0.823 µM, respectively.

As to `CN1CCN(CC(O)COc2c(Br)c(Br)c(Br)c3c2OC(C)(C)C3)CC1` (configuration not stated), the GI50 in the test with OVCAR-3 ovarian was 3.56 µM; in the test with SR leukemia, 1.95 µM; in the test with IGROV1 ovarian it was 5.36 µM; in the test with OVCAR-5 ovarian, 17.7 µM; in the test with NCI-H460 lung, 3.1 µM; in the test on A498 renal it was 10.1 µM. For the same compound, the values for the GI50 in the test with CCRF-CEM leukemia, with DU-145 prostate and in the test on U251 CNS were 3.11 µM, 11.8 µM and 3.56 µM, respectively. In addition, the TGI in the test with OVCAR-3 ovarian was found to be 17.4 µM; with SR leukemia, 4.75 µM; with IGROV1 ovarian it was 25.1 µM; in the test on OVCAR-5 ovarian, 43.7 µM; in the test with NCI-H460 lung, 10.6 µM; with A498 renal it was 28.7 µM. In addition, the TGI in the test on CCRF-CEM leukemia stood at 16.2 µM; with DU-145 prostate it was 24.5 µM; in the test with U251 CNS it was 12.9 µM.

`C[C@@H]1O[C@@H](OC[C@H]2O[C@@H](OCCc3ccc(O)c(O)c3)[C@H](O)[C@@H](O)[C@@H]2OC(=O)/C=C/c2ccc(O)c(O)c2)[C@H](O)[C@H](O)[C@H]1O`: the GI50 in the test on OVCAR-3 ovarian was more than 100 µM; in the test on SR leukemia, 93.8 µM; in the test with IGROV1 ovarian, more than 100 µM; in the test with OVCAR-5 ovarian it was more than 100 µM; in the test on HCC-2998 colon it was 69.3 µM; in the test with NCI-H460 lung, more than 100 µM. Besides, the GI50 is 36.8 µM with DU-145 prostate and more than 100 µM in the test with U251 CNS. The TGI in the test with OVCAR-3 ovarian, in the test with SR leukemia, in the test with IGROV1 ovarian, in the test on OVCAR-5 ovarian, in the test on HCC-2998 colon and with NCI-H460 lung was more than 100 µM throughout. The TGI with DU-145 prostate and with U251 CNS was more than 100 µM in each case.

On to `Fc1cccc(C2SCc3nc4ccccc4n32)c1F` (configuration not stated), for which the TGI in the test on OVCAR-3 ovarian, in the test with SR leukemia, with IGROV1 ovarian, in the test on OVCAR-5 ovarian, with HCC-2998 colon and in the test on NCI-H460 lung was more than 100 µM each time. For the same compound, the TGI in the test on A498 renal, in the test with CCRF-CEM leukemia and in the test with U251 CNS was more than 100 µM each time.

Turning to `Cc1nc2ccccc2c(/C=C/c2ccc(Br)cc2)c1C(=O)/C=C/c1ccccc1`, the GI50 with OVCAR-3 ovarian was 1.52 µM; with SR leukemia it was 1.24 µM; in the test on IGROV1 ovarian, 1.29 µM; in the test with OVCAR-5 ovarian it was 1.84 µM; with HCC-2998 colon it was 1.8 µM; in the test with A498 renal it was 1.75 µM. For the same compound, the values for the GI50 in the test with CCRF-CEM leukemia, with DU-145 prostate and in the test on U251 CNS were 1.48 µM, 1.62 µM and 1.57 µM, respectively. Also, the TGI in the test on OVCAR-3 ovarian was 3.14 µM; in the test with SR leukemia, 6.6 µM; in the test on IGROV1 ovarian, 4.98 µM; in the test on OVCAR-5 ovarian, 3.37 µM; in the test on HCC-2998 colon it was 3.54 µM; in the test with A498 renal, 3.28 µM. Also, the TGI is more than 100 µM in the test with CCRF-CEM leukemia, 3.15 µM with DU-145 prostate and 2.97 µM in the test on U251 CNS.

As to `CCOC1=C2N=C(Cc3ccccc3F)N=C2C(=O)c2ccccc21`, the TGI with OVCAR-3 ovarian, in the test on SR leukemia, with HCC-2998 colon, in the test on NCI-H460 lung, in the test with CCRF-CEM leukemia and in the test on U251 CNS was more than 100 µM each time.

With `COc1ccc(C(Cl)=C(c2ccc(OCCN(C)C)cc2)c2ccc(OCCN(C)C)cc2)cc1`, the TGI in the test on OVCAR-3 ovarian turned out to be 5.02 µM; in the test with SR leukemia it was 3.16 µM; with IGROV1 ovarian, 13.3 µM; in the test on OVCAR-5 ovarian, 3.3 µM; in the test on HCC-2998 colon it was 7.35 µM; in the test on NCI-H460 lung it was 3.32 µM. Moreover, the values for the TGI in the test on CCRF-CEM leukemia and in the test with U251 CNS were 3.83 µM and 3.25 µM, respectively.

For `CN(CCCCCl)P(=O)(OCCS(=O)(=O)CC(NC(=O)CCC(N)C(=O)O)C(=O)NC(C(=O)O)c1ccccc1)OCC1OC(n2cc(F)c(=O)[nH]c2=O)CC1O` (configuration not stated), the GI50 in the test with OVCAR-3 ovarian is 1.22 µM; with IGROV1 ovarian it was 0.0884 µM; in the test on OVCAR-5 ovarian it was more than 27.4 µM; in the test on NCI-H460 lung, less than 0.01 µM; in the test with CCRF-CEM leukemia, less than 0.0376 µM; with DU-145 prostate, 0.214 µM. In the test on U251 CNS, the GI50 was less than 0.0171 µM. In addition, the TGI in the test with OVCAR-3 ovarian was more than 84.4 µM; with SR leukemia, more than 90.9 µM; in the test on IGROV1 ovarian, more than 100 µM; in the test with OVCAR-5 ovarian it was more than 100 µM; in the test with A498 renal it was more than 100 µM; with CCRF-CEM leukemia, 33.1 µM. The figures for the TGI in the test on DU-145 prostate and with U251 CNS were more than 100 µM and more than 41.6 µM, respectively.

Consider `Cc1ccc(S(=O)OC2C3CC4CC(C3)CC2C4)cc1` (configuration not stated), for which the TGI with OVCAR-3 ovarian, in the test on SR leukemia, in the test on IGROV1 ovarian, in the test with OVCAR-5 ovarian, in the test with HCC-2998 colon and with NCI-H460 lung was more than 100 µM in each case. Also, the TGI with A498 renal and in the test with U251 CNS was more than 100 µM in each case.

In the case of `CN1COc2c(n(C)c(=O)[nH]c2=O)C1`, the TGI in the test with OVCAR-3 ovarian was more than 100 µM; in the test on SR leukemia, more than 80.6 µM; in the test on IGROV1 ovarian, more than 100 µM; in the test with OVCAR-5 ovarian, more than 100 µM; in the test on HCC-2998 colon it was more than 100 µM; with NCI-H460 lung, more than 100 µM. Moreover, the TGI in the test with A498 renal, with CCRF-CEM leukemia and with U251 CNS was more than 100 µM each time.

The values above are taken from PubChem BioAssay (NCI).
